Measured values reported in the supplement of paper PMC11208160.

Test: recombinant UMI read abundance after kanamycin selection (control-corrected) (log10(CPM+1)); higher = more efficient recombination; extreme values may be limits of the assay; sequences stand for … in AGTGCAGAGAAAATCGGCCAGTTTTCTCTGCCTGCAGTCCGCATGCCGTGGGACCCCTTGGGTTCTAACCTGTTGCCTAGATTTATGCAGCGGACTGCCTTTCTCCCAAAGTGATAAACCGG…AGGTTGGTTTCACT; site = the 11-nt donor
In short: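 Counts of recombinant UMIs were reported as log10(CPM+1). Before that, they were converted to CPM, averaged over replicates and scaled using control-derived factors. They came from PCR across the donor–target junction after Escherichia coli carrying the pair library and target plasmid was plated on IPTG (0.07 mM) plus kanamycin, or unselected, in two replicates each.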
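Note: IS621 bridge recombinase in Escherichia coli cells against a fixed T5 target plasmid.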

Row | Sequence | recombinant UMI read abundance (log10)
1 | CCGTATGCATGGACCGGTTTTCCCGGTAATCCGTATTTGAA (site CCGTATGCTTT) | 1.14
2 | CCGTCCCCATGGACCGGTTTTCCCGGTAATCCGTATTTGCT (site CCGTCCCCTAG) | 0.00559
3 | CCGTCGACATGGACCGGTTTTCCCGGTAATCCGTATTTGGG (site CAGTCGACTCC) | 0.01
4 | CCGTCGACATGGACCGGTTTTCCCGGTAATCCGTATTTGGG (site CCGTCGACTCC) | 0.0232
5 | CCGTCGACATGGACCGGTTTTCCCGGTAATCCGTATTTGGG (site CGGTCGACTCC) | 0.0251
6 | CCGTCGACATGGACCGGTTTTCCCGGTAATCCGTATTTGGG (site CTGTCGACTCC) | 0
7 | CCGTTAACATGGACCGGTTTTCCCGGTAATCCGTATTTGCT (site CCGTTAACTAG) | 2.18
8 | CCGTTAACATGGACCGGTTTTCCCGGTAATCCGTATTTGCT (site CCGTTCACTAG) | 0
9 | CCGTTAACATGGACCGGTTTTCCCGGTAATCCGTATTTGCT (site CCGTTGACTAG) | 0.00307
10 | CCGTTAACATGGACCGGTTTTCCCGGTAATCCGTATTTGCT (site CCGTTTACTAG) | 0
11 | CCGTTAGCATGGACCGGTTTTCCCGGTAATCCGTATTTGTA (site CCGTTAGCTAA) | 0.0181
12 | CCGTTAGCATGGACCGGTTTTCCCGGTAATCCGTATTTGTA (site CCGTTAGCTCA) | 0.00671
13 | CCGTTAGCATGGACCGGTTTTCCCGGTAATCCGTATTTGTA (site CCGTTAGCTGA) | 0
14 | CCGTTAGCATGGACCGGTTTTCCCGGTAATCCGTATTTGTA (site CCGTTAGCTTA) | 0.601
15 | CCGTTAGCATGGACCGGTTTTCCCGGTAATCCGTATTTGTC (site CCGTTAGCTAA) | 0.0291
16 | CCGTTAGCATGGACCGGTTTTCCCGGTAATCCGTATTTGTC (site CCGTTAGCTCA) | 0.00762
17 | CCGTTAGCATGGACCGGTTTTCCCGGTAATCCGTATTTGTC (site CCGTTAGCTGA) | 1.58
18 | CCGTTAGCATGGACCGGTTTTCCCGGTAATCCGTATTTGTC (site CCGTTAGCTTA) | 0.396
19 | CCGTTAGCATGGACCGGTTTTCCCGGTAATCCGTATTTGTT (site CCGTTAGCTAA) | 1.02
20 | CCGTTAGCATGGACCGGTTTTCCCGGTAATCCGTATTTGTT (site CCGTTAGCTCA) | 0.00936
21 | CCGTTAGCATGGACCGGTTTTCCCGGTAATCCGTATTTGTT (site CCGTTAGCTGA) | 0
22 | CCGTTAGCATGGACCGGTTTTCCCGGTAATCCGTATTTGTT (site CCGTTAGCTTA) | 0.00339
23 | CCGTTATCATGGACCGGTTTTCCCGGTAATCCGTATTTGTG (site CCGTTAACTCA) | 0.0485
24 | CCGTTATCATGGACCGGTTTTCCCGGTAATCCGTATTTGTG (site CCGTTACCTCA) | 0.00831
25 | CCGTTATCATGGACCGGTTTTCCCGGTAATCCGTATTTGTG (site CCGTTAGCTCA) | 0.0138

Row | Sequence | recombinant UMI read abundance (log10)
26 | CCGTTATCATGGACCGGTTTTCCCGGTAATCCGTATTTGTG (site CCGTTATCTCA) | 0.662
27 | CCGTTCTCATGGACCGGTTTTCCCGGTAATCCGTATTTGGA (site CCGTTCTCTTC) | 0
28 | CCGTTTACATGGACCGGTTTTCCCGGTAATCCGTATTTGGT (site CCGTTTACTAA) | 0.00739
29 | CCGTTTACATGGACCGGTTTTCCCGGTAATCCGTATTTGGT (site CCGTTTACTAC) | 0.279
30 | CCGTTTACATGGACCGGTTTTCCCGGTAATCCGTATTTGGT (site CCGTTTACTAG) | 0
31 | CCGTTTACATGGACCGGTTTTCCCGGTAATCCGTATTTGGT (site CCGTTTACTAT) | 0
32 | CCGTTTCCATGGACCGGTTTTCCCGGTAATCCGTATTTGAC (site CCGTTTCCTGT) | 0
33 | CCGTTTTCATGGACCGGTTTTCCCGGTAATCCGTATTTGCT (site CCGTTTACTAG) | 0
34 | CCGTTTTCATGGACCGGTTTTCCCGGTAATCCGTATTTGCT (site CCGTTTCCTAG) | 0.00608
35 | CCGTTTTCATGGACCGGTTTTCCCGGTAATCCGTATTTGCT (site CCGTTTGCTAG) | 0
36 | CCGTTTTCATGGACCGGTTTTCCCGGTAATCCGTATTTGCT (site CCGTTTTCTAG) | 0
37 | CCTAAAGCATGGACCGGTTTTCCCGGTAATCCGTATTTGAT (site ACTAAAGCTAT) | 0
38 | CCTAAAGCATGGACCGGTTTTCCCGGTAATCCGTATTTGAT (site CATAAAGCTAT) | 0
39 | CCTAAAGCATGGACCGGTTTTCCCGGTAATCCGTATTTGAT (site CCAAAAGCTAT) | 0
40 | CCTAAAGCATGGACCGGTTTTCCCGGTAATCCGTATTTGAT (site CCCAAAGCTAT) | 0.0148
41 | CCTAAAGCATGGACCGGTTTTCCCGGTAATCCGTATTTGAT (site CCGAAAGCTAT) | 0
42 | CCTAAAGCATGGACCGGTTTTCCCGGTAATCCGTATTTGAT (site CCTAAAACTAT) | 0
43 | CCTAAAGCATGGACCGGTTTTCCCGGTAATCCGTATTTGAT (site CCTAAACCTAT) | 0.00391
44 | CCTAAAGCATGGACCGGTTTTCCCGGTAATCCGTATTTGAT (site CCTAAAGCTAA) | 0
45 | CCTAAAGCATGGACCGGTTTTCCCGGTAATCCGTATTTGAT (site CCTAAAGCTAC) | 0
46 | CCTAAAGCATGGACCGGTTTTCCCGGTAATCCGTATTTGAT (site CCTAAAGCTAG) | 0
47 | CCTAAAGCATGGACCGGTTTTCCCGGTAATCCGTATTTGAT (site CCTAAAGCTAT) | 0.14
48 | CCTAAAGCATGGACCGGTTTTCCCGGTAATCCGTATTTGAT (site CCTAAAGCTCT) | 0.00392
49 | CCTAAAGCATGGACCGGTTTTCCCGGTAATCCGTATTTGAT (site CCTAAAGCTGT) | 0
50 | CCTAAAGCATGGACCGGTTTTCCCGGTAATCCGTATTTGAT (site CCTAAAGCTTT) | 0

Row | Sequence | recombinant UMI read abundance (log10)
51 | CCTAAAGCATGGACCGGTTTTCCCGGTAATCCGTATTTGAT (site CCTAAATCTAT) | 0
52 | CCTAAAGCATGGACCGGTTTTCCCGGTAATCCGTATTTGAT (site CCTAACGCTAT) | 0.035
53 | CCTAAAGCATGGACCGGTTTTCCCGGTAATCCGTATTTGAT (site CCTAAGGCTAT) | 0
54 | CCTAAAGCATGGACCGGTTTTCCCGGTAATCCGTATTTGAT (site CCTAATGCTAT) | 0.00544
55 | CCTAAAGCATGGACCGGTTTTCCCGGTAATCCGTATTTGAT (site CCTACAGCTAT) | 0.0037
56 | CCTAAAGCATGGACCGGTTTTCCCGGTAATCCGTATTTGAT (site CCTAGAGCTAT) | 0.00698
57 | CCTAAAGCATGGACCGGTTTTCCCGGTAATCCGTATTTGAT (site CCTATAGCTAT) | 0.00347
58 | CCTAAAGCATGGACCGGTTTTCCCGGTAATCCGTATTTGAT (site CCTCAAGCTAT) | 0.00248
59 | CCTAAAGCATGGACCGGTTTTCCCGGTAATCCGTATTTGAT (site CCTGAAGCTAT) | 0
60 | CCTAAAGCATGGACCGGTTTTCCCGGTAATCCGTATTTGAT (site CCTTAAGCTAT) | 0.0074
61 | CCTAAAGCATGGACCGGTTTTCCCGGTAATCCGTATTTGAT (site CGTAAAGCTAT) | 0
62 | CCTAAAGCATGGACCGGTTTTCCCGGTAATCCGTATTTGAT (site CTTAAAGCTAT) | 0.00697
63 | CCTAAAGCATGGACCGGTTTTCCCGGTAATCCGTATTTGAT (site GCTAAAGCTAT) | 0
64 | CCTAAAGCATGGACCGGTTTTCCCGGTAATCCGTATTTGAT (site TCTAAAGCTAT) | 0.00543
65 | CCTAAAGCATGGACCGGTTTTCCCGGTAATCCGTATTTGGA (site CCTAAAGCTTC) | 0.0116
66 | CCTAAGACATGGACCGGTTTTCCCGGTAATCCGTATTTGGC (site CCTAAAACTGC) | 0
67 | CCTAAGACATGGACCGGTTTTCCCGGTAATCCGTATTTGGC (site CCTAACACTGC) | 0
68 | CCTAAGACATGGACCGGTTTTCCCGGTAATCCGTATTTGGC (site CCTAAGACTGC) | 0
69 | CCTAAGACATGGACCGGTTTTCCCGGTAATCCGTATTTGGC (site CCTAATACTGC) | 0
70 | CCTAAGGCATGGACCGGTTTTCCCGGTAATCCGTATTTGAT (site CCTAAAGCTAT) | 0
71 | CCTAAGGCATGGACCGGTTTTCCCGGTAATCCGTATTTGAT (site CCTAACGCTAT) | 0.00671
72 | CCTAAGGCATGGACCGGTTTTCCCGGTAATCCGTATTTGAT (site CCTAAGGCTAT) | 0.0186
73 | CCTAAGGCATGGACCGGTTTTCCCGGTAATCCGTATTTGAT (site CCTAATGCTAT) | 0
74 | CCTAATACATGGACCGGTTTTCCCGGTAATCCGTATTTGGC (site ACTAATACTGC) | 0
75 | CCTAATACATGGACCGGTTTTCCCGGTAATCCGTATTTGGC (site CATAATACTGC) | 0
